From article PMC11768629, “Potential Interaction of Pinocembrin with Drug Transporters and Hepatic Drug-Metabolizing Enzymes” (Pharmaceuticals, 2025)

Tests used:
hOAT1 [1] = target: T1, hOAT1 (Homo sapiens, UniProt Q4U2R8); experiment: Pinocembrin treatment followed by 3H-PAH accumulation in hOAT1-MDCK cells; type: cell-based; conditions: 1, 10 and 50 μM for 24 h, concentration-dependent, compared with vehicle
T1 construct: host or cells: MDCK
T1 sequence (Q4U2R8 1-563): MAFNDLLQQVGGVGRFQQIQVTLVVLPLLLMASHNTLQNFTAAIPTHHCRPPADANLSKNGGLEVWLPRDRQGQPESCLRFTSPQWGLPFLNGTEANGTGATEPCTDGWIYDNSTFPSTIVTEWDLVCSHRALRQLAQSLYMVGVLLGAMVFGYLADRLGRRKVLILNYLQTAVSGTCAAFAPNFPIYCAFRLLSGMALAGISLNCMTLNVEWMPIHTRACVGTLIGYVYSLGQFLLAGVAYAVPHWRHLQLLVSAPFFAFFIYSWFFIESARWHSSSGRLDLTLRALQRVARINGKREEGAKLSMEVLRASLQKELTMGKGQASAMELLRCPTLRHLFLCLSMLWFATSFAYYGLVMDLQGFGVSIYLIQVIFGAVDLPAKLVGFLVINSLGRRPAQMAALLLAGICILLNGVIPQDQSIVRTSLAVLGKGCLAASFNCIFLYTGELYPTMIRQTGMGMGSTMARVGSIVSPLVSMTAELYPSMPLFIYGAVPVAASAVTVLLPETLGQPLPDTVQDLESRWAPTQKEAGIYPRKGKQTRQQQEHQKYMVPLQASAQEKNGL
Experimental: The hOAT1-MDCK cells and hOAT3-MDCK cells were treated with 1, 10, and 50 μM pinocembrin for 24 h, followed by a measurement of ^3H-PAH and ^3H-estrone sulfate cellular accumulation. […] The inhibitory effect of pinocembrin occurred in a concentration-dependent manner.
A cell monolayer comprising hOAT1-MDCK, hOAT3-MDCK, hOCT1-CHO-K1, hOCT2-CHO-K1, hMATE1-CHO-K1, hMATE2-CHO-K1, and mock cells were utilized for the uptake experiments. The cells were washed three times with a buffer containing (in mM) 140 NaCl, 5 KCl, 0.4 MgSO4, 0.5 MgCl2, 1 CaCl2, 0.3 Na2HPO4, 0.4 KH2PO4, 6 D-glucose, and 4 NaHCO3 at pH 7.4 and incubated at 37 °C for 15 min. After incubation, the hOAT1-MDCK and hOAT3-MDCK cells were incubated for 10 min with ^3H-PAH and ^3H-estrone sulfate, a substrate of hOAT1 and hOAT3, respectively. The hOCT1-CHO-K1 and hOCT2-CHO-K1 cells were incubated with ^3H-MPP^+, a substrate of OCT1 and OCT2, for five minutes. The functions of MATE1 and MATE2 were determined by incubating the hMATE1-CHO-K1 and hMATE2-CHO-K1 cells with a buffer containing ^3H-MPP^+, a substrate of MATE1 and MATE2, at pH 8.5 for five minutes. The cells were washed three times with an ice-cold buffer to stop the transport function. […] The samples were collected and transferred to vials containing a liquid scintillation cocktail to measure radioactivity by a β-counter (Packard BioScience, Wellesley, MA, USA). […]

CYP2C8 = system: CYP2C8; parameters: method as in PMID 34069400, doi:10.5562/cca3652, PMID 35721953; conditions: cited from earlier work
CYP2C19 = target: T2, CYP2C19 (Homo sapiens, UniProt P33261); experiment: Cell-free CYP450 inhibition assay, CYP2C19; type: biochemical; conditions: cell-free fluorescent probe assay
T2 construct: purchased Life Technologies
T2 sequence (P33261 whole entry): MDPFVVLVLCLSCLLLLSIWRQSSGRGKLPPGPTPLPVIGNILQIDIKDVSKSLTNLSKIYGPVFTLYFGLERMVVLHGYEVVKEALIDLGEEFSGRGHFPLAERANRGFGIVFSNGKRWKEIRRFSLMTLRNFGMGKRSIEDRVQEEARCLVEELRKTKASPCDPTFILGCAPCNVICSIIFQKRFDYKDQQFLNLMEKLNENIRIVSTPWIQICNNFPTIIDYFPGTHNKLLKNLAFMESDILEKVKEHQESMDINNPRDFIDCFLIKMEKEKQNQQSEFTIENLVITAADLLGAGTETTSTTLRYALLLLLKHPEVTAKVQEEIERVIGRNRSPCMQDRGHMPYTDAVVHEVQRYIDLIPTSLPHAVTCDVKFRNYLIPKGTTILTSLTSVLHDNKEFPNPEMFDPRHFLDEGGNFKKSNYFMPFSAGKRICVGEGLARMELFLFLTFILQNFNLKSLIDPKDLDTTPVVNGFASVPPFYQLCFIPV
Experimental: To determine whether pinocembrin influences the catalytic activity of CYP450 enzymes, fluorescent probe reaction assays were performed using varying concentrations of pinocembrin. […] In addition, molecular docking was conducted to better understand the binding mode and interactions between pinocembrin and human CYP2C19.
The CYP450 inhibitory activity of pinocembrin was determined using a P450 screening kit (Life Technologies; Carlsbad, CA, USA). Varied concentrations of pinocembrin were prepared in methanol. […] The fluorescence intensities were monitored every minute for 60 min at room temperature. The percentage of inhibition was calculated according to the following equation: % Inhibition=(1−X−B/A−B)×100% where X is the fluorescence intensity observed in the presence of pinocembrin.

BCRP = system: BCRP; parameters: method as in PMID 22263589, PMID 23497885; conditions: cited from earlier work
hOAT1 [2] = target: T1, hOAT1; experiment: hOAT1-mediated 6-CF uptake in hOAT1-MDCK cells (inhibitory potency and kinetics); type: cell-based
Experimental: To determine the inhibitory potency of pinocembrin on the hOAT1 and hOAT3 function, the IC50 of pinocembrin on the hOAT1- and hOAT3-mediated uptake of 6-carboxyfluorescein (6-CF), a fluorescent substrate of hOAT1 and hOAT3, was determined. […] Next, the inhibitory mechanism of pinocembrin was determined using a kinetic study.
The hOAT1-MDCK and hOAT3-MDCK cell monolayers were incubated at 37 °C with an uptake buffer containing 6-CF (10 µM), a fluorescent substrate of hOAT1 and hOAT3 [12], and pinocembrin (0–50 µM) for 10 min. Uptake was terminated by removing the uptake solution and washing four times with a cold buffer. The cell monolayers were lysed with 0.4 N NaOH for 30 min. The samples were transferred to 96-black well plates to measure the fluorescence intensity using a fluorescent plate reader (EnVision XCite 2105 Multimode Plate Reader, Packard BioScience, Wellesley, MA, USA) at excitation and emission wavelengths of 490 and 510, respectively. The IC50 of pinocembrin on hOAT1- and hOAT3-mediated 6-CF uptake was calculated in GraphPad Prism using sigmoidal concentration–response analysis using the equation Y = 100/(IC50/X)^HillSlope (X is the concentration, while Y is the normalized response). In addition, the estimated inhibitory constant (Ki) was calculated using the Cheng–Prusoff equation.
The hOAT1-MDCK and hOAT3-MDCK cell monolayers were incubated with 6-CF at increasing concentrations (0 to 100 µM) and in the absence or presence of 5 µM pinocembrin for 10 min. The kinetic parameters of 6-CF transport by hOAT1 and hOAT3 in the presence of pinocembrin were determined using nonlinear regression analysis to fit the Michaelis–Menten kinetic equation: V=Vmax[S]/Km+[S] where V is the rate of 6-CF transport, Vmax is the maximum rate of 6-CF transport, Km is the 6-CF concentration that results in half the maximum transport (Michaelis–Menten constant), and [S] is the concentration of 6-CF in the transport reaction.

P-gp = target: T3, P-gp (Homo sapiens, UniProt P08183); experiment: P-gp-mediated 3H-digoxin transepithelial transport in Caco-2 cell monolayers; type: cell-based; conditions: 10 µM pinocembrin, 0-120 min, compared with vehicle control
T3 construct: Caco-2 cell monolayers, which express both P-gp and BCRP; host or cells: Caco-2
T3 sequence (P08183 whole entry): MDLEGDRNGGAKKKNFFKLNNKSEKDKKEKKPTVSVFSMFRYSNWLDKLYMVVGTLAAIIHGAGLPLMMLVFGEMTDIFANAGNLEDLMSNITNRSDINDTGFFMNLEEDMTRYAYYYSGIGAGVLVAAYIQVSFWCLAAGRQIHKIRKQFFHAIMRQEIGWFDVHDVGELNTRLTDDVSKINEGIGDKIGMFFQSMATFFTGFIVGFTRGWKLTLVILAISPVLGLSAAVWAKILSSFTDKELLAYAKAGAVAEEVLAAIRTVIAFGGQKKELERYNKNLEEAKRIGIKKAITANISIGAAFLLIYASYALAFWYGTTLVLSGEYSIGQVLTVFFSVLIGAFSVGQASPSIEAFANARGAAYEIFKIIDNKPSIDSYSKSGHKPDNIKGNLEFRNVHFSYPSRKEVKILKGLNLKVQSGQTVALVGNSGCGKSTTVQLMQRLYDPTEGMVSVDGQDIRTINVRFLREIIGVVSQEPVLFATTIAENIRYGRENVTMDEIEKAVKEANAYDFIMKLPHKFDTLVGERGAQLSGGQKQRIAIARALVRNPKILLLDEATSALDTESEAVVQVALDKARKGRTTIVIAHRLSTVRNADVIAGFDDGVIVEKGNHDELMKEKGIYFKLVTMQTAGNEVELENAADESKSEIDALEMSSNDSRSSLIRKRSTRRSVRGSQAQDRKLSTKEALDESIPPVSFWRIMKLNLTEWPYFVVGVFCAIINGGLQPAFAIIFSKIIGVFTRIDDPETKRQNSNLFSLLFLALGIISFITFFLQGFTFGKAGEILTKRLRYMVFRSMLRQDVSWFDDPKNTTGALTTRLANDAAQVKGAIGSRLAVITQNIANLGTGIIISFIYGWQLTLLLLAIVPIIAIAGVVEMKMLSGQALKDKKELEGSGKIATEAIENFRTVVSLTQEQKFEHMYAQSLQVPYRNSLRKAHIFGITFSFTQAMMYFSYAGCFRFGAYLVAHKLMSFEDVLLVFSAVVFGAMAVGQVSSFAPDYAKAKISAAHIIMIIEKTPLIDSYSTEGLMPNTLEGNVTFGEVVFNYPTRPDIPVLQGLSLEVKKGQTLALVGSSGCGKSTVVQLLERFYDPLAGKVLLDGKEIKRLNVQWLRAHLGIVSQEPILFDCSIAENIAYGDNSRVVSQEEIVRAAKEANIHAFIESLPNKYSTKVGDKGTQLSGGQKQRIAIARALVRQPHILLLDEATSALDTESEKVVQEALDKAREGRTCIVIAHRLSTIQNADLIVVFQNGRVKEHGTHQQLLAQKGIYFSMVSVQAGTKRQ
Experimental: The interactions of pinocembrin with P-gp and BCRP were determined by the measurement of P-gp-mediated ^3H-digoxin transport and BCRP-mediated ^3H-estrone sulfate transport in Caco-2 cell monolayers, which express both P-gp and BCRP [20]. The apical sides of the Caco-2 cell monolayers were incubated with a buffer containing ^3H-digoxin alone, ^3H-digoxin plus 10 µM pinocembrin or ^3H-digoxin plus 100 µM verapamil (P-gp inhibitor).
P-gp- and BCRP-mediated transport were measured by the transepithelial transport of their substrates (^3H-digoxin for P-gp and ^3H-estrone sulfate for BCRP) in Caco-2 cell monolayers. […] Caco-2 cells were cultured on membrane inserts (Corning Inc., Corning, NY, USA) for 21 days. […] The basolateral side was replaced with a transport buffer. The sample from the basolateral side was transferred to vials containing a liquid scintillation cocktail to measure radioactivity by a β-counter (Packard BioScience, Wellesley, MA, USA).

3H-PAH accumulation after pinocembrin treatment (hOAT1 [1]): significantly decreased | IC50 (CYP2C19; BACULOSOMES): 4.5 µM | IC50 at 60 min (CYP2C19; human, CYP2C19 BACULOSOMES (cell-free recombinant enzyme)): 4.49 µM | Vmax of hOAT1-mediated 6-CF uptake, With Pinocembrin (hOAT1 [2]; 5 μM pinocembrin, 6-CF up to 100 μM, hOAT1-MDCK cells): 6.03 ± 1.02 nmol/min/cm^2 | IC50 (hOAT1 [2]; hOAT1-MDCK cells, 6-CF 10 µM, mean ± S.D., three experiments): 1.47 ± 0.87 µM | Ki (hOAT1 [2]; hOAT1-MDCK cells, estimated with the Cheng–Prusoff equation): 0.81 ± 0.12 µM | inhibitory mechanism on hOAT1 transport function (hOAT1 [2]; kinetic study, 5 μM pinocembrin: Km increased, Vmax unchanged): competitively | transport of 3H-digoxin from the apical to basolateral side (P-gp): did not alter
Compound: O=C1C[C@@H](c2ccccc2)Oc2cc(O)cc(O)c21 [pinocembrin]
effect on the activity of CYP2C8 (CYP2C8): does not affect | effect on BCRP (BCRP): weakly inhibited
